Values of other authors, collected in article PMC6594753, “Cystic fibrosis drug ivacaftor stimulates CFTR channels at picomolar concentrations” (eLife, 2019).

Test system: CFTR
Design: method as in Yeh et al., 2019
Conditions: ref Yeh et al., 2019; cited from earlier work

CC1(C)Cc2c(sc(NC(=O)c3ccn[nH]3)c2C(N)=O)C(C)(C)O1 [GLPG-1837]
Hill coefficients of dose response curves for activation: close to unity
